Experimental data from patent EP4537835A1, “MIXTURE, COMPOSITIONS CONTAINING THAT MIXTURE AND USE THEREOF IN THE TREATMENT OF FEMAL INFERTILITY” (Nutra Futura S.r.l., priority 2023, dated 2025).

test system: CaCo-2 cells; assay: Dose-response study of cell viability (MTT assay) on CaCo-2 cells; type: cell-based, human; conditions: p<0.05 compared to the other tested doses
Procedure: The human intestinal epithelial cell line CaCo-2, purchased from the American Type Culture Collection (ATCC), was used as an experimental model to predict the characteristics of intestinal absorption following oral administration. This cell line was cultured in Dulbecco's Modified Eagle Medium/Nutrient F-12 Ham (DMEM-F12, Merck Life Science, Rome, Italy) containing 10% FBS (Merck Life Science, Rome, Italy), 2 mM of L-glutamine and 1% penicillin-streptomycin (Merck Life Science, Rome, Italy) and kept in an incubator at 37 °C and 5% CO2. The experiments were conducted using cells with a passage number comprised between 26 and 32 to maintain the correct properties of permeability and paracellular transport. The cells were seeded in various ways, including 1 × 10^4 cells in 96-well plates, in order to study cell viability and ROS production, synchronising the cells for 8 hours with DMEM without phenol red and supplemented with 0.5% FBS, 2 mM L-glutamine and 1% penicillin-streptomycin at 37 °C; 2 × 10^4 cells in Transwell® 6.5 mm plates (Corning® Costar®, Merck Life Science, Rome, Italy) with a polycarbonate membrane insert with 0.4 µm pores (Corning® Costar®, Merck Life Science, Rome, Italy) in a 24-well plate in order to perform the absorption analyses.
The analysis of cell viability was carried out with a classic technique based on the MTT in vitro toxicology assay kit (Merck Life Science, Rome, Italy), following the manufacturer's instructions. In fact, at the end of the treatment, the cells were incubated with 1% MTT dye for 2 hours in an incubator at 37 °C, 5% CO2 and 95% humidity; the purple formazan crystals were then dissolved in an equal volume of MTT solubilisation solution. Absorbance was analysed with a spectrophotometer (Infinite 200 Pro MPlex, Tecan, Männedorf, Switzerland) at 570 nm with correction at 690 nm, and the results were expressed versus the control ([…]), which represented the untreated cells. The results represent the percentage of viable cells versus the control, which makes it possible to understand whether the stimulation is safe or not.
With the aim of evaluating what the best concentration of each selected substance might be, and to prevent any cytotoxic effect, the viability of the CaCo-2 cells was analysed by means of the MTT assay.
• L. crispatus (10 mg/ml; 20 mg/ml; 30 mg/ml; 40 mg/ml; 50 mg/ml) • NAC (0.3 mM; 0.6 mM; 1 mM) • lycopene (0.1 µM; 0.2 µM; 0.5 µM) • vitamin D3 (10 nM; 100 nM) • folic acid (10 µM; 50 µM; 125 µM; 500 µM)
Therefore, these were maintained for all the subsequent experiments.

First: Nc1nc(=O)c2nc(CNc3ccc(C(=O)N[C@@H](CCC(=O)O)C(=O)O)cc3)cnc2[nH]1 [Folic acid, (S)-2-(4-((2-amino-4-hydroxypteridin-6-yl)-methylamino)benzamide)pentanedioic acid]
Second: CC(=O)N[C@@H](CS)C(=O)O [NAC, N-acetyl-L-cysteine]
The “most effective concentration (cell viability)” value of the first is 12-fold lower: 50 µM for the first, 600 µM for the second.

Going from `CC(C)=CCC/C(C)=C/C=C/C(C)=C/C=C/C(C)=C/C=C/C=C(C)/C=C/C=C(C)/C=C/C=C(\C)CCC=C(C)C` [Lycopene, (6E,8E,10E,12E,14E,16E,18E,20E,22E,24E,26E)-2,6,10,14,19,23,27,31-Octamethyl-dotriaconta-2,6,8,10,12,14,16,18,20,22,24,26,30-tridecane] to `C=C1CC[C@H](O)C/C1=C/C=C1\CCC[C@]2(C)[C@@H]([C@H](C)CCCC(C)C)CC[C@@H]12` [Vitamin D, cholecalciferol], the “most effective concentration (cell viability)” value falls from 0.2 µM to 0.01 µM (20-fold).
